Test results as given in patent US12570659B2, “Bicyclic heteroaryl compounds useful as IRAK4 inhibitors” (BRISTOL-MYERS SQUIBB COMPANY, priority 2019, dated 2026).

Assays:
[1] = tested on: TLR2 agonist-stimulated IL-6 in human whole blood; test: IRAK4 Whole Blood Assay; assay type: cell-based; conditions: lipoteichoic acid 10 μg/mL, 5 hours, IL-6 levels
Protocol: Human whole blood containing the anti-coagulant ACD-A was plated in 384-well plate (25 μL/well) and incubated with compounds for 60 minutes at 37° C. in a 5% CO2 incubator. The blood was stimulated with a TLR2 agonist, 10 μg/mL final concentration of lipoteichoic acid (Invivogen, San Diego, CA) in 25 μL RPMI (Gibco) for 5 hours in a 5% CO2 incubator. At the end of the incubation, plates were centrifuged at 2300 rpm for 5 minutes. Supernatants were harvested and analyzed for IL-6 levels by Flow Cytometry beads assay (BD Biosciences, San Jose, CA).

[2] = molecular target: JAK3 kinase (Homo sapiens (Human), UniProt P52333); test: JAK3 Homogeneous Time Resolved Fluorescence (HTRF) Assay; assay type: binding; conditions: for IC50: competition binding with fluorescein-labeled ATP competitive probe; for Ratio of JAK3 IC50 to IRAK4 IC50: selectivity for IRAK4 over JAK3
Procedure, shortened: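 TR-FRET competition binding: 1 nM His- or GST-tagged JAK3 with 0.2 nM Tb-labeled anti-tag antibody, fluorescein ATP-competitive probe at its Kd, and compound for one hour. FRET read at 495/520 nm, normalized to no-compound signal. IC50 from 11 concentrations, 4-parameter logistic fit.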

[3] = molecular target: IRAK4 (Homo sapiens (Human), UniProt Q9NWZ3); test: IRAK4 Inhibition Assay; assay type: biochemical; conditions: ATP 500 μM; IRAK4 0.6 nM; 60 min room temperature
Procedure, shortened: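 Reaction started by combining IRAK4 with substrates and compound, run 60 min at room temperature and stopped with 35 mM EDTA. Fluorescent substrate and phosphorylated product were separated electrophoretically on a Caliper LabChip; inhibition normalized to no-enzyme (100%) and vehicle-only (0%) controls.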

JAK3 kinase, sequence (P52333 whole entry): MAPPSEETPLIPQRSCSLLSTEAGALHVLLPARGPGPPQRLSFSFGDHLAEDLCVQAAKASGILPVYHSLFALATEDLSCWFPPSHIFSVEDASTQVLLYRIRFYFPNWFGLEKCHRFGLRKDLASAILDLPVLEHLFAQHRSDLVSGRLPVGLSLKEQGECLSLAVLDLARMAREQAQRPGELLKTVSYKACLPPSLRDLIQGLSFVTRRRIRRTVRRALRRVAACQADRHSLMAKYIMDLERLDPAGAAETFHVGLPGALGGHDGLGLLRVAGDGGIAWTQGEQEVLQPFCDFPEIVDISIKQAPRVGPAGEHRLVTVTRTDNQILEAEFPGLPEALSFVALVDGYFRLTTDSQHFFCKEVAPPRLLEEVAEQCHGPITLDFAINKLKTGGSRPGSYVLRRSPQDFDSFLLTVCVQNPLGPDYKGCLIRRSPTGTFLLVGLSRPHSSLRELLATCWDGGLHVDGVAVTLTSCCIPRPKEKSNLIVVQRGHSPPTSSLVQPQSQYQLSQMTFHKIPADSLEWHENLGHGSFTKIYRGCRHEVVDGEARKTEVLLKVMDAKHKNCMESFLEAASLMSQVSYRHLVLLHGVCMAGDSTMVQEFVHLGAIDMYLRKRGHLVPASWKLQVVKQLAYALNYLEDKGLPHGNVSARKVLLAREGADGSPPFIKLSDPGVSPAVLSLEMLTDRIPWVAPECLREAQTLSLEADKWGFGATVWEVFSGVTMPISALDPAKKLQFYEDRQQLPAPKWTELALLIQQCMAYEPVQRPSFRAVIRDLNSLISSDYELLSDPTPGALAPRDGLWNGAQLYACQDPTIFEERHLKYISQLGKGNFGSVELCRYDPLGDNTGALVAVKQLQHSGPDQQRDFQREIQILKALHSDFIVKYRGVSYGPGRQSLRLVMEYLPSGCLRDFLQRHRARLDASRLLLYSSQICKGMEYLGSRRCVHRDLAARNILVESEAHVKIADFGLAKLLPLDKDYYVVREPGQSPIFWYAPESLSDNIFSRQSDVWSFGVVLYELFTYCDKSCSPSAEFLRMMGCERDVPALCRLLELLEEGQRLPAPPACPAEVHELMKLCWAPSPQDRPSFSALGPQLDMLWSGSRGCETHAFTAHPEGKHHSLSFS
IRAK4, sequence (Q9NWZ3 whole entry, species assumed): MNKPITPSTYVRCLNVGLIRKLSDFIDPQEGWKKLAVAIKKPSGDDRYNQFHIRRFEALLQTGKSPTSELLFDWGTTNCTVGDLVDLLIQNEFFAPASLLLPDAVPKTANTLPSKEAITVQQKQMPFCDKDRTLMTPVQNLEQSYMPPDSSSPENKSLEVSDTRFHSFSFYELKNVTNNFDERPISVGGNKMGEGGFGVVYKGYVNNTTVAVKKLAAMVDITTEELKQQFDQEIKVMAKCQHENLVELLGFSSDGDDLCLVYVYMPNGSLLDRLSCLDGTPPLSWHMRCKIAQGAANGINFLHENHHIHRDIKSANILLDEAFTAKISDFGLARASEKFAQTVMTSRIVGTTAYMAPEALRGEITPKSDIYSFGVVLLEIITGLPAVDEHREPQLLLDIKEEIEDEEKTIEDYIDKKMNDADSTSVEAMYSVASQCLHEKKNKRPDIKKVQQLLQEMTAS

CC(=O)N[C@H]1CC[C@H](NC(=O)c2cnn3cc(-c4ccncc4)nc3c2NC(C)C)CC1 [Example 108, N-((1r,4r)-4-acetamidocyclohexyl)-8-(isopropylamino)-2-(pyridin-4-yl)imidazo[1,2-b]pyridazine-7-carboxamide]
IC50 [1]: 890 nM
IC50 [2]: ~49000 nM
Ratio of JAK3 IC50 to IRAK4 IC50 [2]: ~4455
IC50 [3]: 11 nM

CC(C)Nc1c(C(=O)N[C@H]2CC[C@H](NC(=O)CO)CC2)cnn2cc(-c3ccncc3F)cc12 [Example 68, 6-(3-fluoropyridin-4-yl)-N-((1r,4r)-4-(2-hydroxyacetamido)cyclohexyl)-4-(isopropylamino)pyrrolo[1,2-b]pyridazine-3-carboxamide]
IC50 [1]: 4100 nM
IC50 [2]: > 50000 nM
Ratio of JAK3 IC50 to IRAK4 IC50 [2]: >7692
IC50 [3]: 6.5 nM

Cc1cc(F)ncc1-c1cc2c(NC(C)C)c(C(=O)N[C@H]3CC[C@H](C(N)=O)CC3)cnn2c1 [Example 88, N-((1r,4r)-4-carbamoylcyclohexyl)-6-(6-fluoro-4-methylpyridin-3-yl)-4-(isopropylamino)pyrrolo[1,2-b]pyridazine-3-carboxamide]
IC50 [1]: > 10000 nM
IC50 [2]: > 50000 nM
Ratio of JAK3 IC50 to IRAK4 IC50 [2]: >6579
IC50 [3]: 7.6 nM

CC(C)Nc1c(C(=O)NC2CCN(S(C)(=O)=O)CC2)cnn2cc(-c3ccncc3F)nc12 [Example 111, 2-(3-fluoropyridin-4-yl)-8-(isopropylamino)-N-(1-(methylsulfonyl)piperidin-4-yl)imidazo[1,2-b]pyridazine-7-carboxamide]
IC50 [1]: 3730 nM
IC50 [2]: > 50000 nM
Ratio of JAK3 IC50 to IRAK4 IC50 [2]: >3846
IC50 [3]: 13 nM

CC(=O)N[C@H]1CC[C@H](NC(=O)c2cnn3cc(-c4ccncc4)cc3c2NC(C)C)CC1 [Example 50, N-((1r,4r)-4-acetamidocyclohexyl)-4-(isopropylamino)-6-(pyridin-4-yl)pyrrolo[1,2-b]pyridazine-3-carboxamide]
IC50 [1]: 900 nM
IC50 [2]: ~39000 nM
Ratio of JAK3 IC50 to IRAK4 IC50 [2]: ~18571
IC50 [3]: 2.1 nM

COC(=O)Nc1cc(-c2cc3c(NC(C)C)c(C(=O)NC[C@@H](F)C(C)(C)O)cnn3c2)ccn1 [Example 46, methyl (R)-(4-(3-((2-fluoro-3-hydroxy-3-methylbutyl)carbamoyl)-4-(isopropylamino)pyrrolo[1,2-b]pyridazin-6-yl)pyridin-2-yl) carbamate]
IC50 [1]: 6230 nM
IC50 [2]: > 50000 nM
Ratio of JAK3 IC50 to IRAK4 IC50 [2]: >5495
IC50 [3]: 9.1 nM

CC(C)Nc1c(C(=O)N[C@H]2CC[C@H](O)CC2)cnn2cc(-c3ccncc3)cc12 [Example 60, N-((1r,4r)-4-hydroxycyclohexyl)-4-(isopropylamino)-6-(pyridin-4-yl)pyrrolo[1,2-b]pyridazine-3-carboxamide]
IC50 [1]: 3950 nM
IC50 [2]: > 50000 nM
Ratio of JAK3 IC50 to IRAK4 IC50 [2]: >5263
IC50 [3]: 9.5 nM

CC(C)Nc1c(C(=O)NCCC(C)(C)O)cnn2cc(-c3ccncc3)cc12 [Example 62, N-(3-hydroxy-3-methylbutyl)-4-(isopropylamino)-6-(pyridin-4-yl)pyrrolo[1,2-b]pyridazine-3-carboxamide]
IC50 [1]: 2010 nM
IC50 [2]: > 50000 nM
Ratio of JAK3 IC50 to IRAK4 IC50 [2]: >5952
IC50 [3]: 8.4 nM

CC(C)Nc1c(C(=O)N[C@H]2CC[C@H](C(N)=O)CC2)cnn2cc(-c3ccncc3F)cc12 [Example 89, N-((1r,4r)-4-carbamoylcyclohexyl)-6-(3-fluoropyridin-4-yl)-4-(isopropylamino) pyrrolo[1,2-b]pyridazine-3-carboxamide]
IC50 [1]: 1360 nM
IC50 [2]: > 50000 nM
Ratio of JAK3 IC50 to IRAK4 IC50 [2]: >13158
IC50 [3]: 3.8 nM

CC(C)Nc1c(C(=O)N[C@H]2CC[C@H](C(=O)N3CCOCC3)CC2)cnn2cc(-c3ccncc3F)cc12 [Example 84, 6-(3-fluoropyridin-4-yl)-4-(isopropylamino)-N-((1r,4r)-4-(morpholine-4-carbonyl)cyclohexyl)pyrrolo[1,2-b]pyridazine-3-carboxamide]
IC50 [1]: 1040 nM
IC50 [2]: > 50000 nM
Ratio of JAK3 IC50 to IRAK4 IC50 [2]: >18519
IC50 [3]: 2.7 nM

CC(C)Nc1c(C(=O)NC[C@@H](F)C(C)(C)O)cnn2cc(-c3ccc(N)nc3)cc12 [Example 45, (R)-6-(6-aminopyridin-3-yl)-N-(2-fluoro-3-hydroxy-3-methylbutyl)-4-(isopropylamino) pyrrolo[1,2-b]pyridazine-3-carboxamide]
IC50 [1]: 4680 nM
IC50 [2]: ~29000 nM
Ratio of JAK3 IC50 to IRAK4 IC50 [2]: ~3671
IC50 [3]: 7.9 nM

COC(=O)N[C@H]1CC[C@H](NC(=O)c2cnn3cc(-c4ccncc4)cc3c2NC(C)C)CC1 [Example 51, methyl ((1r,4r)-4-(4-(isopropylamino)-6-(pyridin-4-yl)pyrrolo[1,2-b]pyridazine-3-carboxamido)cyclohexyl)carbamate]
IC50 [1]: 1760 nM
IC50 [2]: > 50000 nM
Ratio of JAK3 IC50 to IRAK4 IC50 [2]: >17857
IC50 [3]: 2.8 nM

CC(C)Nc1c(C(=O)N[C@H]2CC[C@H](c3nc[nH]n3)CC2)cnn2cc(-c3ccncc3)cc12 [Example 90, N-((1r,4r)-4-(1H-1,2,4-triazol-3-yl)cyclohexyl)-4-(isopropylamino)-6-(pyridin-4-yl)pyrrolo[1,2-b]pyridazine-3-carboxamide]
IC50 [1]: 630 nM
IC50 [2]: 10000 nM
Ratio of JAK3 IC50 to IRAK4 IC50 [2]: 2703
IC50 [3]: 3.7 nM

CC(C)Nc1c(C(=O)N[C@H]2CC[C@H](c3nc[nH]n3)CC2)cnn2cc(-c3ccncc3F)cc12 [Example 93, N-((1r,4r)-4-(1H-1,2,4-triazol-3-yl)cyclohexyl)-6-(3-fluoropyridin-4-yl)-4-(isopropylamino)pyrrolo[1,2-b]pyridazine-3-carboxamide]
IC50 [1]: 1040 nM
IC50 [2]: > 50000 nM
Ratio of JAK3 IC50 to IRAK4 IC50 [2]: >21739
IC50 [3]: 2.3 nM

CC(C)Nc1c(C(=O)NCCC(C)(C)O)cnn2cc(-c3ccncc3F)nc12 [Example 109, 2-(3-fluoropyridin-4-yl)-N-(3-hydroxy-3-methylbutyl)-8-(isopropylamino)imidazo[1,2-b]pyridazine-7-carboxamide]
IC50 [1]: > 20000 nM
IC50 [2]: > 50000 nM
Ratio of JAK3 IC50 to IRAK4 IC50 [2]: >4167
IC50 [3]: 12 nM

CC(C)Nc1c(C(=O)NC[C@@H](F)C(C)(C)O)cnn2cc(-c3ccc(C#N)cc3)cc12 [Example 1, (R)-6-(4-cyanophenyl)-N-(2-fluoro-3-hydroxy-3-methylbutyl)-4-(isopropylamino)pyrrolo[1,2-b]pyridazine-3-carboxamide]
IC50 [1]: > 10000 nM
IC50 [2]: 20000 nM
Ratio of JAK3 IC50 to IRAK4 IC50 [2]: 1667
IC50 [3]: 12 nM

CC(C)Nc1c(C(=O)NC[C@@H](F)C(C)(C)O)cnn2cc(-c3cn[nH]c3)cc12 [Example 34, (R)—N-(2-fluoro-3-hydroxy-3-methylbutyl)-4-(isopropylamino)-6-(1H-pyrazol-4-yl) pyrrolo[1,2-b]pyridazine-3-carboxamide]
IC50 [1]: > 10000 nM
IC50 [2]: > 10000 nM
Ratio of JAK3 IC50 to IRAK4 IC50 [2]: >1493
IC50 [3]: 6.7 nM

CC(C)Nc1c(C(=O)NCCC(C)(C)O)cnn2cc(-c3ccncc3F)cc12 [Example 77, 6-(3-fluoropyridin-4-yl)-N-(3-hydroxy-3-methylbutyl)-4-(isopropylamino)pyrrolo[1,2-b]pyridazine-3-carboxamide]
IC50 [1]: 1310 nM
IC50 [3]: 4.3 nM

CC(=O)N[C@H]1CC[C@H](NC(=O)c2cnn3cc(-c4ccc(CO)nc4)cc3c2NC(C)C)CC1 [Example 73, N-((1r,4r)-4-acetamidocyclohexyl)-6-(6-(hydroxymethyl)pyridin-3-yl)-4-(isopropylamino)pyrrolo[1,2-b]pyridazine-3-carboxamide]
IC50 [1]: 650 nM
IC50 [2]: > 50000 nM
Ratio of JAK3 IC50 to IRAK4 IC50 [2]: >16129
IC50 [3]: 3.1 nM

CC(C)Nc1c(C(=O)NC[C@@H](F)C(C)(C)O)cnn2cc(-c3cccc(C#N)c3)cc12 [Example 2, (R)-6-(3-cyanophenyl)-N-(2-fluoro-3-hydroxy-3-methylbutyl)-4-(isopropylamino) pyrrolo[1,2-b]pyridazine-3-carboxamide]
IC50 [1]: > 10000 nM
IC50 [3]: 12 nM

CC(C)Nc1c(C(=O)NC[C@@H](F)C(C)(C)O)cnc2cc(-c3cncc(F)c3)nn12 [Example 130, (R)—N-(2-fluoro-3-hydroxy-3-methylbutyl)-2-(5-fluoropyridin-3-yl)-7-(isopropylamino) pyrazolo[1,5-a]pyrimidine-6-carboxamide]
IC50 [2]: > 10000 nM
Ratio of JAK3 IC50 to IRAK4 IC50 [2]: >91
IC50 [3]: 110 nM

CC(C)(O)[C@H](F)CNC(=O)c1cnn2cc(-c3ccccc3)cc2c1NC1CC1 [Example 31, (R)-4-(cyclopropylamino)-N-(2-fluoro-3-hydroxy-3-methylbutyl)-6-phenylpyrrolo[1,2-b] pyridazine-3-carboxamide]
IC50 [2]: > 2000 nM
Ratio of JAK3 IC50 to IRAK4 IC50 [2]: >61
IC50 [3]: 33 nM

CC(C)(O)CCNc1c(C(=O)NC[C@@H](F)C(C)(C)O)cnn2cc(-c3ccc(F)nc3)cc12 [Example 21, (R)—N-(2-fluoro-3-hydroxy-3-methylbutyl)-6-(6-fluoropyridin-3-yl)-4-((3-hydroxy-3-methylbutyl)amino)pyrrolo[1,2-b] pyridazine-3-carboxamide]
IC50 [2]: > 50000 nM
Ratio of JAK3 IC50 to IRAK4 IC50 [2]: >294
IC50 [3]: 170 nM
